We go through 2 substances from patent US6696578B2, “Difuropyrone derivatives” (Mount Sinai Hospital, priority 1999, dated 2004).

The nature of series [1]: Solubility of CM-1 in various solvents. It counts as physicochemical.
Series [2] is described as follows: Storage of CM-1 calibrator at room temperature or in freezer, UV absorbance. In kind it is physicochemical. The note with it: calibrator in 50% methanol, eight months; for UV absorbance at 306 nm after storage: reference calibrator 0.69 AU. The protocol:
The UV absorbance of CM-1 calibrator (30 ug/ml of 50% methanol) was measured. An aliquot of CM-1 calibrator was kept on the bench top for […], and another aliquot was kept in a storage box in a −70° C. freezer for an equal length of time. The UV absorbance of CM-1 calibrator aliquot was measured after eight months of respective storage procedure.

A short description of series [3]: Rehydrolysis of purified CM-1 calibrator with 6N HCl for different time points. It counts as physicochemical. The note with it: 110° C. The method, then: 100 μl of CM-1 calibrator was lyophilized, resuspended in 3.0 ml of 50% methanol and UV absorbance was measured. Five aliquots of 500 μl each were rehydrolyzed with 1000 μl 6N HCl at 110° C. for 3, 6, 12, 24 and 48 hrs. The rehydrolyzed CM-1 was lyophilized and resuspended in 500 μl of 50% methanol and UV absorbance was measured. Methanol was then evaporated and the samples were resuspended in 500 μl of the mobile phase and injected into the HPLC analytical column. The results of rehydrolysis of CM-1 were compared to the unhydrolyzed CM-1 calibrator.

The nature of series [4]: Rehydrolysis of purified CM-1 with 6N HCl, UV absorption. In kind it is physicochemical. The note with it: purified CM-1, 6N HCl, 110° C., 48 hrs. The method, then: An aliquot of purified CM-1 was lyophilized. The lyophilized CM-1 was resuspended in 7 ml of 50% HPLC grade methanol. The UV absorption of CM-1 was measured at 306 nm using a Shimatzu Spectrophotometer. The methanol was evaporated and CM-1 was rehydrolysed for 48 hrs in 6N HCl at 110° C. CM-1 was then lyophilized and resuspended in 7 ml of 50% HPLC grade methanol. The UV absorption of CM-1 was measured.

Series [5] relates to SM and MD cartilage cultures (calf metaphalangeal joint chondrocytes). The series can be described thus: Bovine cartilage cultures treated with interleukin-1β. In kind it is cell-based. The note with it: 10 ng/ml for 7 days prior to harvesting. The method, then:
Articular cartilage was excised separately from the superficial-middle (SM) or middle-deep (MD) layers of calf metaphalangeal joint using a sterile technique as described by Boyle et al. The cartilage slices were placed in a petri dish containing Ham's F12 and 1% antibiotics in HAT. Chondrocytes were isolated from the SM and MD extracellular matrix by sequential enzymatic digestion using proteinase (0.5%, 1 hour, 37° C.), washed three times with Ham's F12 medium and finally digested with collagenase A (0.1%, overnight, 37° C.). Teflon filter inserts (Millicell CMR, Millipore Corp., Bedford, Mass., USA) were placed into the wells of the 24 well culture dish, coated with type II collagen (0.5 mg/ml of 0.1N acetic acid), dried overnight and UV sterilized for 30 mins. The filter inserts were washed thoroughly with Ham's F12 before plating the cells. The isolated SM and MD chondrocytes were washed extensively and resuspended in Ham's F12 with 5% fetal bovine serum (FBS) and plated on the teflon inserts at a density of 3.0×10^6/cm^2. The cells were supplemented with the medium containing 20% FBS and 100 μg/ml ascorbic acid (added fresh at all times) from day 7 onwards every alternate working day. Some cartilage filter cultures were treated with 10 ng/ml interleukin-1β (Il-1β, human recombinant, Sigma) for 7 days (three changes of the Ham's F12 with 20% FBS and Il-1β) prior to harvesting. The chondrocytes were grown at 37° C., 100% humidity and 5% CO2. The chondrocyte cultures were harvested at fixed time points i.e. day 21, 35, and 56 and stored at −20° C. till the analysis day.
The untreated (controls) and Il-1β-treated SM and MD cartilage cultures were analyzed for cartilage thickness and collagen, proteoglycan, pyridinoline, deoxypyridinoline, and CM-1 content as described herein.

Regarding 2,6-dimethyl-difuro-8-pyrone [CM-1], the solubility entry in series [1] (chloroform) is “insoluble”; in series [1] (hexane) it was “insoluble”; in series [1] (methanol), “highly soluble”; in series [1] (water), “highly soluble”. Also, the “decrease of UV absorbance at 306 nm after storage” value in series [2] (room temperature) came out at 75%. Besides, the “UV absorbance at 306 nm after storage” value is given as 0.1718 AU in series [2] (room temperature) and 0.73 AU in series [2] (−70° C. freezer). Moreover, the figures for the “CM-1 yield after rehydrolysis (unhydrolyzed calibrator = 100%)” value in series [3] (3 hrs (maintained up to 12 hrs)), in series [3] (24 hrs) and in series [3] (48 hrs) were 64%, 19% and 4.5%, respectively. Also, the “stability when rehydrolyzed with 6N HCl” value in series [3] (prolonged period) is “not stable”. In addition, the “decrease of UV absorption at 276 nm after rehydrolysis” value in series [4] was determined as 51%. In addition, the “decrease of UV absorption at 306 nm after rehydrolysis” value in series [4] is reported as 75%. Further, in series [4] (before treatment 1.00 (278 nm)), the “UV absorption at 276 nm after rehydrolysis” value came to 0.4865 AU. Besides, in series [4] (before treatment 1.884), the “UV absorption at 306 nm after rehydrolysis” value is on record as 0.469 AU.

For “Il-1β: interleukin-1β, human recombinant, Sigma; used to treat cartilage filter cultures”, the “glycosaminoglycan (GAG) content” value in series [5] (SM and DM groups) was “decreased”. For the same substance, in series [5] (SM and DM groups, in particular day 56), the collagen content entry is listed as “decreased”. Moreover, in series [5] (SM and MD groups), the “cartilage thickness versus untreated controls” value was “thinner”. Besides, the “Pyd and Dpyd content” value in series [5] (day 35 and more so day 56) is on record as “decrease”.
